The values that follow come from publication PMC7906907, “Targeting STAT3 by a small molecule suppresses pancreatic cancer progression” (Oncogene, 2021).

By Kd is commonly meant the free concentration of one partner at which half of the binding sites on the other are occupied at equilibrium, for simple one-to-one binding. A higher Kd goes with lower affinity. In general, IC50 refers to the concentration that inhibits the measured activity by half.

Where “and” joins values, the source holds several entries; their conditions need not be identical. Identical values can stand only once.

In one assay the target is T1, STAT3-SH2 (Homo sapiens, UniProt P40763).
T1 construct: made in house
T1 sequence (P40763 580-670 limits assumed): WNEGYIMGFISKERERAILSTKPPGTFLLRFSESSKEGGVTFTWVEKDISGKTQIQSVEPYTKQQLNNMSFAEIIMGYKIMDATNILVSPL
The experiment in a line: Microscale thermophoresis (MST) assay, STAT3-SH2. It counts as binding. The source says:
Fig. 3 N4 interacts with the STAT3-SH2 domain and interferes with the STAT3-EGFR and STAT3-NF-κB interactions. […] C–E The binding between N4 and STAT3 was examined in (C) SPR and (D) MST experiments. His-STAT3^127-722 protein was purified and used to examine the affinity between STAT3 and N4. (E) The binding between N4 and STAT3^SH2 was confirmed in MST assays. STAT3-SH2 protein was purified and labeled. N4 was serially diluted and mixed with equal volumes of labeled STAT3^SH2 protein. The MST signal was measured, and the data were analyzed by MO analysis software. F, G The FLAG-tag and HA-tag STAT3 expression plasmid was transfected into 293 T cells, followed by the addition of the indicated concentrations of N4. After 24 h, cells were lysed, and immunoprecipitation experiments were performed as described in Materials and Methods. H N4 represses STAT3 dimerization in pancreatic cancer cells. I After a 24 h treatment with 2 μM N4, pancreatic cancer cells were stimulated with IL-6 for 30 min. Cell lysates were immunoprecipitated with STAT3 overnight. […]
The MST assay was previously described. Binding affinities of N4 with the purified His-STAT3-SH2 were measured using the Monolith NT.115 device (NanoTemper Technologies). […] The samples were then loaded into premium capillaries (NanoTemper Technologies) and measured using the Monolith NT.115 device. […]
For orientation: In MST a laser heats a spot of the sample, and binding alters the fluorescence response.

Assay [1] deals with CAPAN-2, PANC-1, and MIAPACA-2 cells. The assay can be described thus: Colony formation. The following applies: 7 days. The class given is cell-based. The method, then:
Fig. 4 N4 suppresses pancreatic cancer cell proliferation and migration and induces apoptosis. A Pancreatic cancer cells (CAPAN-2, PANC-1, MIAPACA-2, BXPC-3, HPAC, and CFPAC-1) and normal cells (HPNE, HAF) were incubated with the indicated concentration of N4 for 48 h. MTS assays were performed to detect the N4-mediated inhibition of cell proliferation. Data are shown as mean ± SD, *P < 0.05, **P < 0.01, ***P < 0.001, ****P < 0.0001, n.s. not significant by one-way ANOVA followed by multiple comparisons. B, C CAPAN-2, PANC-1, and MIAPACA-2 cells were treated with N4 (B) or C188-9 (C) for 7 days. The cells fixed and stained, and colony numbers were calculated. Experiments were carried out in triplicate with identical results obtained. […] Apoptotic cells were analyzed as described in Materials and Methods. […] In F, after 48 h transfection, transfected cells were seeded in 96-well plates, and cells were enumerated at day 1, day 2, and day 4, In G, different cells transfected with different siRNA were treated with the indicated concentrations of N4, and cell viability measured after a 48 h treatment. Data are expressed as mean ± SD, *P < 0.05, ***P < 0.001, n.s. not significant by one-way ANOVA followed by multiple comparisons. […] Data are expressed as mean ± SD, *P < 0.05, ***P < 0.001, n.s. not significant; Student’s t tests were performed. […]

Assay [2] concerns the target His-STAT3^127-722 protein (Homo sapiens, UniProt P40763). The experiment in a line: Fluorescence polarization (FP) assay, STAT3-phosphopeptide interaction. The class given is binding. Details: We purified amino acids 127–722 of the STAT3 protein for this assay; made in house. Particulars: N4 pre-incubated with STAT3 protein 1 h, then 10 nM labeled peptide 1 h; read-out: IC50, block of the STAT3-peptide interaction.
Procedure: A Purified STAT3 protein was incubated with labeled phosphopeptide, 5-carboxyfluorescein-GpYLPQTV-NH2 for 1 h at 37 °C. FP signals were measured, and the data were analyzed using Graph Pad 7.0 software. […] C Different concentrations of N4 were pre-incubated with recombined STAT3 protein for 1 h, then 10 nM of labeled peptide was added for 1 h. The IC50 was calculated using Graph Pad 7.0.
The labeled phosphopeptide: 5-carboxyfluorescein-GpYLPQTV-NH2 (where pY represents phospho-Tyr) was used as the STAT3 binding probe. To evaluate the effect of compounds in inhibiting STAT3-peptide interaction, serial dilutions of the STAT3 competitors were prepared. The diluted compounds were added to the reaction mixture in 100 μl of FP buffer (50 mM HEPES, pH 7.5, 150 mM NaCl, 0.1% NP-40, and 1 mM dithiothreitol) containing 500 nM his-STAT3^127–722 protein for pre-incubation at 37 °C for 1 h. Then, 10 nM of the labeled peptide was added and incubated for 1 h. After incubation, FP was measured on a Cytation^TM 5 cell imaging multi-mode Reader (BioTek) using excitation and emission wavelengths of 480 nm and 535 nm, respectively. Each reaction was repeated two or three times. Binding or competitive parameters were calculated from a nonlinear regression using GraphPad Prism 7.0.

His-STAT3^127-722 protein, sequence (P40763 127-722): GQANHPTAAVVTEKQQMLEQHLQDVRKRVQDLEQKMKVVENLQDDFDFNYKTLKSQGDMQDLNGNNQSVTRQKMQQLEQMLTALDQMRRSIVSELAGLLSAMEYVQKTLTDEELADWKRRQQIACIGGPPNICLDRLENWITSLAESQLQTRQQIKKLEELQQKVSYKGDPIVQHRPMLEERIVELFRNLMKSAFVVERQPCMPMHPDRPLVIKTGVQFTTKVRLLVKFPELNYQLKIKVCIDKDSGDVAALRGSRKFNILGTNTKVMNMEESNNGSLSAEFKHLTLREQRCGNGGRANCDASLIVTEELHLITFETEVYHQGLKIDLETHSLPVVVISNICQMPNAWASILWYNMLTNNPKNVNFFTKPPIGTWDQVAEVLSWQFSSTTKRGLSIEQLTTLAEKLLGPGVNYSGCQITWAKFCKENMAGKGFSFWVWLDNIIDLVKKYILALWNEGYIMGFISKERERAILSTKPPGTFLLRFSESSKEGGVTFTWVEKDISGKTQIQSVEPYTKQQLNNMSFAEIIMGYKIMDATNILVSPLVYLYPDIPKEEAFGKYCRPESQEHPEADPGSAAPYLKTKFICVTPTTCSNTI

The compound `COc1cc2c(cc1C(=O)Nc1cccc3cccnc13)CCC1C(C)(C)C(=O)C(C#N)=C[C@]21C` (stereo partly drawn) [N4] had a dissociation constant (Kd) at STAT3-SH2 of 1010 nM. The “colony formation, compared with C188-9 and BP-1-102” value in assay [1] is on record as “more potently inhibited”. Also, in assay [2], the half-inhibitory concentration (IC50) is 570 nM and 568 nM.
